According to US7902235B2 (priority 2004, dated 2011):

Test system: tripeptidyl-peptidase 1 (TPP-I)
Conditions: patient-derived LINCL cell line, compound heterozygous Arg208Stop and a rare nonsense mutation; maximal; cited from earlier work
In the case of gentamicin, the “TPP-I restored, of normal levels” value is listed as “approximately 7%”.

Test system: not given
Conditions: not given
For `CC(OC(=O)NC(=O)c1cccc(-c2noc(-c3ccccc3F)n2)c1)C(C)(C)C` (racemic) [Compound 37, (±)-{3-[5-(2-Fluorophenyl)-[1,2,4]oxadiazol-3-yl]benzoyl}carbamic Acid 1,2,2-trimethylpropyl Ester], the melting point was 170 to 173 °C. In the case of `COC(=O)NC(=O)c1cccc(-c2noc(-c3ccccc3F)n2)c1` [Compound 1], the melting point is reported as 176 to 177 °C. Compound `CCOC(=O)NC(=O)c1cccc(-c2noc(-c3ccccc3F)n2)c1` [Compound 2] has a melting point of 160.5 to 162 °C. Work on `CC(C)OC(=O)NC(=O)c1cccc(-c2noc(-c3ccccc3F)n2)c1` [Compound 3] yielded a melting point of 172 to 174 °C. In the case of `O=C(NC(=O)c1cccc(-c2noc(-c3ccccc3F)n2)c1)NC1CC1` [Compound 4], the melting point is reported as 226 to 227.5 °C. In the case of `CONC(=O)NC(=O)c1cccc(-c2noc(-c3ccccc3F)n2)c1` [Compound 5], the melting point is reported as 206 to 207 °C. `NC(=O)NC(=O)c1cccc(-c2noc(-c3ccccc3F)n2)c1` [Compound 6] gave a melting point of 240 °C. Compound `O=C(NCCF)NC(=O)c1cccc(-c2noc(-c3ccccc3F)n2)c1` [Compound 7] has a melting point of 233 to 234 °C. Work on `O=C(NC(=O)c1cccc(-c2noc(-c3ccccc3F)n2)c1)Nc1ncccn1` [Compound 8] yielded a melting point of 247 to 249 °C. For `O=C(NC(=O)c1cccc(-c2noc(-c3ccccc3F)n2)c1)Nc1ccccn1` [Compound 9], the melting point was 252 to 254 °C. For `O=C(NC(=O)c1cccc(-c2noc(-c3ccccc3F)n2)c1)Oc1ccccc1` [Compound 10], the melting point was 252 to 254 °C. Work on `O=C(NC(=O)c1cccc(-c2noc(-c3ccccc3F)n2)c1)OC1CCOCC1` [Compound 11] yielded a melting point of 177.5 to 179 °C. Work on `O=C(NC(=O)c1cccc(-c2noc(-c3ccccc3F)n2)c1)OCCN1CCOCC1` [Compound 12] yielded a melting point of 223 to 224 °C. In the case of `Cc1ccc(S(=O)(=O)NC(=O)NC(=O)c2cccc(-c3noc(-c4ccccc4F)n3)c2)cc1` [Compound 15], the melting point is reported as 188 to 191 °C. `O=C(NC(=O)c1cccc(-c2noc(-c3ccccc3F)n2)c1)OCCc1ccccc1` [Compound 16] gave a melting point of 129 to 130 °C. Compound `O=C(NC(=O)c1cccc(-c2noc(-c3ccccc3F)n2)c1)OC1CCCCC1` [Compound 17] has a melting point of 172 to 174 °C. Work on `O=C(NC(=O)c1cccc(-c2noc(-c3ccccc3F)n2)c1)OCC1CCCCC1` [Compound 18] yielded a melting point of 134 to 138 °C. `O=C(NC(=O)c1cccc(-c2noc(-c3ccccc3F)n2)c1)OCc1ccccc1` [Compound 19] showed a melting point of 133 to 134 °C. For `CCCOC(=O)NC(=O)c1cccc(-c2noc(-c3ccccc3F)n2)c1` [Compound 20], the melting point was 152 to 155 °C. Compound `COCCOC(=O)NC(=O)c1cccc(-c2noc(-c3ccccc3F)n2)c1` [Compound 21] has a melting point of 139 to 141 °C. With `O=C(NC(=O)c1cccc(-c2noc(-c3ccccc3F)n2)c1)OC1CCCC1` [Compound 22] the melting point was 187 to 190 °C. `O=C(NC(=O)c1cccc(-c2noc(-c3ccccc3F)n2)c1)Oc1cccc2c1CCCC2` [Compound 23] gave a melting point of 199 to 202 °C. In the case of `O=C(NC(=O)N1CCCC1)c1cccc(-c2noc(-c3ccccc3F)n2)c1` [Compound 24], the melting point is reported as 178 to 180 °C. For `O=C(NC(=O)N1CCOCC1)c1cccc(-c2noc(-c3ccccc3F)n2)c1` [Compound 25, Morpholine-4-carboxylic Acid 3-[5-(2-fluorophenyl)-[1,2,4]oxadiazol-3-yl]benzoylamide], the melting point was 190 to 194 °C. `CCN(CC)C(=O)NC(=O)c1cccc(-c2noc(-c3ccccc3F)n2)c1` [Compound 26] gave a melting point of 161 to 163 °C. With `Cc1cc(C)cc(NC(=O)NC(=O)c2cccc(-c3noc(-c4ccccc4F)n3)c2)c1` [Compound 27] the melting point was 247 to 250 °C. `O=C(NC(=O)N1CCN(c2ccccc2)CC1)c1cccc(-c2noc(-c3ccccc3F)n2)c1` [Compound 28] showed a melting point of 169 to 173 °C. `CC(OC(=O)NC(=O)c1cccc(-c2noc(-c3ccccc3F)n2)c1)c1ccccc1` (centres unmarked) [Compound 30] showed a melting point of 140 to 141 °C. For `CC(OC(=O)NC(=O)c1cccc(-c2noc(-c3ccccc3F)n2)c1)C1CC1` (centres unmarked) [Compound 31], the melting point was 150 to 152 °C. In the case of `O=C(NC(=O)c1cccc(-c2noc(-c3ccccc3F)n2)c1)OC1CCCc2ccccc21` (centres unmarked) [Compound 32], the melting point is reported as 168 to 170 °C. `O=C(NC(=O)c1cccc(-c2noc(-c3ccccc3F)n2)c1)OC(c1ccccc1)C(F)(F)F` (centres unmarked) [Compound 33] gave a melting point of 164 to 165 °C. `COCC(C)OC(=O)NC(=O)c1cccc(-c2noc(-c3ccccc3F)n2)c1` (centres unmarked) [Compound 34] showed a melting point of 141 to 143 °C. With `O=C(NC(=O)c1cccc(-c2noc(-c3ccccc3F)n2)c1)OC1CCOC1` (centres unmarked) [Compound 35] the melting point was 197 to 200 °C. `O=C(NC(=O)c1cccc(-c2noc(-c3ccccc3F)n2)c1)OC1Cc2ccccc2C1` [Compound 36] gave a melting point of 165 to 168 °C. With `CC(C)C(C)OC(=O)NC(=O)c1cccc(-c2noc(-c3ccccc3F)n2)c1` (centres unmarked) [Compound 38] the melting point was 168 to 170 °C. `CC(C)CC(C)OC(=O)NC(=O)c1cccc(-c2noc(-c3ccccc3F)n2)c1` (centres unmarked) [Compound 39] gave a melting point of 108 to 109 °C. `CC(OC(=O)NC(=O)c1cccc(-c2noc(-c3ccccc3F)n2)c1)c1ccc(C(F)(F)F)cc1` (centres unmarked) [Compound 40] showed a melting point of 161 to 163 °C. Compound `O=C(NC(=O)c1cccc(-c2noc(-c3ccccc3F)n2)c1)OC1CCN(Cc2ccccc2)CC1` [Compound 42] has a melting point of 132 to 134 °C. For `CN1C(=O)C[C@H](OC(=O)NC(=O)c2cccc(-c3noc(-c4ccccc4F)n3)c2)C1=O` [Compound 43], the melting point was 120 to 123 °C. For `C[C@@H](OC(=O)NC(=O)c1cccc(-c2noc(-c3ccccc3F)n2)c1)C(N)=O` [Compound 44], the melting point was 193 to 196 °C. `CC(=O)NC(=O)c1cccc(-c2noc(-c3ccccc3F)n2)c1` [Compound 45, N-Acetyl-3-[5-(2-fluorophenyl)-[1,2,4]oxadiazol-3-yl]benzamide] gave a melting point of 119 to 120 °C. `CC(C)C(=O)NC(=O)c1cccc(-c2noc(-c3ccccc3F)n2)c1` [Compound 46, 3-[5-(2-Fluorophenyl)-[1,2,4]oxadiazol-3-yl]-N-isobutyrl-benzamide] showed a melting point of 183 to 184 °C. `O=C(NC(=O)C(F)(F)F)c1cccc(-c2noc(-c3ccccc3F)n2)c1` [Compound 47] showed a melting point of 119 to 120 °C. For `CC(OC(=O)NC(=O)c1cccc(-c2noc(-c3ccccc3F)n2)c1)c1ccncc1` (centres unmarked) [Compound 48], the melting point was 180 to 183 °C. Compound `O=C(NC(=O)c1cccc(-c2noc(-c3ccccc3F)n2)c1)O[C@@H]1CCOC1` [Compound 49] has a melting point of 152 to 156 °C. `CC(OC(=O)NC(=O)c1cccc(-c2noc(-c3ccccc3F)n2)c1)c1ccc(F)cc1` (centres unmarked) [Compound 51] gave a melting point of 116 to 118 °C.
